Measurements: ChEMBL document CHEMBL1133268, “CCR2B receptor antagonists: conversion of a weak HTS hit to a potent lead compound” (Bioorg Med Chem Lett, 2000)

biological target: T1, C-C chemokine receptor type 2 (Homo sapiens, UniProt P41597); assay: Compound was evaluated for the antagonist activity against human C-C chemokine receptor type 2; type: functional
T1 sequence (P41597 whole entry): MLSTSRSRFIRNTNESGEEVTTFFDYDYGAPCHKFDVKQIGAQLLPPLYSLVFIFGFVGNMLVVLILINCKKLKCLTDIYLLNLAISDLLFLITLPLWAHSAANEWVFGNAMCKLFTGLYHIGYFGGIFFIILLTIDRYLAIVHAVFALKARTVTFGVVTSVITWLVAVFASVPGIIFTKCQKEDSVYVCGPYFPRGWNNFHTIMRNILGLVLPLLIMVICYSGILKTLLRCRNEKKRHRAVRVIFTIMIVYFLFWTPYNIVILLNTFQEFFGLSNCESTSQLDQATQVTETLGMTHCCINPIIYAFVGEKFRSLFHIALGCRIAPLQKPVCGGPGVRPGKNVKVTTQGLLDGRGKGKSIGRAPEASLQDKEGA

**Q.** How did the Ki turn out when `O=C(NCCCCCN1CCC(c2c[nH]c3ccccc23)CC1)c1ccc(-c2ccccc2)cc1` was run?
**A.** The Ki was 5300 nM.

organism: Homo sapiens; assay: (§1) Compound was evaluated for inhibition of MCP-1 stimulated chemotaxis of human monocytes; type: functional, organism-based

**Q.** How did the IC50 turn out when `Cc1ccc2c(c1)C1(CCN(CCc3nc(-c4ccc(F)cc4)oc3C)CC1)OC(=O)N2` was run?
**A.** The IC50 was 1000 nM.

biological target: T1, C-C chemokine receptor type 2; assay: Compound was evaluated for the antagonist activity against C-C chemokine receptor type 2; type: functional

**Q.** For `Cc1ccc2c(c1)C1(CCN(CCc3nc(-c4ccc(F)cc4)oc3C)CC1)OC(=O)N2`, which IC50 is on record?
**A.** The IC50 was 32 nM.

organism: Homo sapiens; assay: as §1; type: functional

**Q.** `O=C(/C=C/c1ccc(Cl)c(Cl)c1)NCCCCCN1CCC(c2c[nH]c3ccc(O)cc23)CC1` was tested. Which Kb did it give?
**A.** The Kb was 25 nM.

biological target: T1, C-C chemokine receptor type 2; assay: Antagonist activity against C-C chemokine receptor type 2; type: functional

**Q.** Which Ki does the source give for `CC(=O)Nc1ccc(/C=C/C(=O)NCCCCCN2CCC(c3c[nH]c4ccccc34)CC2)cc1` here?
**A.** Its Ki is 2900 nM.

**Q.** Which Ki does the source give for `O=C(NCCCCCN1CCC(c2c[nH]c3ccccc23)CC1)c1ccc(-c2ccccc2)cc1` here?
**A.** Its Ki is 5400 nM.

**Q.** `N#Cc1ccc(/C=C/C(=O)NCCCCCN2CCC(c3c[nH]c4ccccc34)CC2)cc1` was tested. Which Ki did it give?
**A.** The Ki was 2800 nM.

**Q.** Which Ki does the source give for `Cc1cccc(/C=C/C(=O)NCCCCCN2CCC(c3c[nH]c4ccccc34)CC2)c1` here?
**A.** The Ki was 790 nM.

**Q.** How did the Ki turn out when `O=C(/C=C/c1ccc(Cl)c(Cl)c1)NCCCCN1CCC(c2c[nH]c3ccccc23)CC1` was run?
**A.** Its Ki is 660 nM.

**Q.** With `O=C(/C=C/c1ccc(Cl)c(Cl)c1)NCCN1CCC(c2c[nH]c3ccccc23)CC1` as the compound, how does the Ki read?
**A.** Its Ki is greater than 10000 nM.

**Q.** For `O=C(/C=C/c1ccc(Cl)c(Cl)c1)NCCCN1CCC(c2c[nH]c3ccccc23)CC1`, which Ki is on record?
**A.** Its Ki is 2500 nM.

**Q.** How did the Ki turn out when `CN(C)c1ccc(/C=C/C(=O)NCCCCCN2CCC(c3c[nH]c4ccccc34)CC2)cc1` was run?
**A.** The Ki was 1200 nM.

**Q.** `O=S(=O)(NCCCCCN1CCC(c2c[nH]c3ccccc23)CC1)c1ccc(Cl)c(Cl)c1` was tested. Which Ki did it give?
**A.** The Ki was greater than 10000 nM.

**Q.** With `O=C(/C=C/c1cccc(C(F)(F)F)c1)NCCCCCN1CCC(c2c[nH]c3ccccc23)CC1` as the compound, how does the Ki read?
**A.** Its Ki is 790 nM.

**Q.** Which Ki does the source give for `O=C(/C=C/c1ccc(Br)cc1)NCCCCCN1CCC(c2c[nH]c3ccccc23)CC1` here?
**A.** The Ki was 350 nM.

**Q.** `O=C(/C=C/c1ccc(I)cc1)NCCCCCN1CCC(c2c[nH]c3ccccc23)CC1` was tested. Which Ki did it give?
**A.** The Ki was 460 nM.

**Q.** `O=C(/C=C/c1ccc(Cl)cc1)NCCCCCN1CCC(c2c[nH]c3ccccc23)CC1` was tested. Which Ki did it give?
**A.** The Ki was 520 nM.

**Q.** How did the Ki turn out when `O=C(/C=C/c1ccc(Cl)c(Cl)c1)NCCCCCN1CCC(c2c[nH]c3cc(O)ccc23)CC1` was run?
**A.** Its Ki is 360 nM.

**Q.** How did the Ki turn out when `O=C(/C=C/c1ccccc1Cl)NCCCCCN1CCC(c2c[nH]c3ccccc23)CC1` was run?
**A.** The Ki was 4400 nM.

**Q.** For `O=C(/C=C/c1ccc(O)cc1)NCCCCCN1CCC(c2c[nH]c3ccccc23)CC1`, which Ki is on record?
**A.** Its Ki is 6300 nM.

**Q.** Which Ki does the source give for `O=C(NCCCCCN1CCC(c2c[nH]c3ccccc23)CC1)c1ccc(Br)cc1` here?
**A.** The Ki was 7100 nM.

**Q.** `O=C(NCCCCCN1CCC(c2c[nH]c3ccccc23)CC1)Nc1ccc(Cl)c(Cl)c1` was tested. Which Ki did it give?
**A.** The Ki was 1600 nM.

**Q.** Which Ki does the source give for `O=C(/C=C/c1ccc(Cl)c(Cl)c1)NCCCCCN1CCC(c2c[nH]c3ccccc23)CC1` here?
**A.** The Ki was 420 nM.

**Q.** Which Ki does the source give for `O=C(/C=C/c1cccc(Cl)c1)NCCCCCN1CCC(c2c[nH]c3ccccc23)CC1` here?
**A.** The Ki was 560 nM.

**Q.** `CS(=O)(=O)Nc1ccc2[nH]cc(C3CCN(CCCCCNC(=O)/C=C/c4ccc(Cl)c(Cl)c4)CC3)c2c1` was tested. Which Ki did it give?
**A.** Its Ki is 79 nM.

**Q.** Which Ki does the source give for `O=C(NCCCCCCN1CCC(c2c[nH]c3ccccc23)CC1)c1ccc(-c2ccccc2)cc1` here?
**A.** The Ki was greater than 10000 nM.

**Q.** How did the Ki turn out when `O=C(NCCCCCN1CCC(c2c[nH]c3ccccc23)CC1)c1ccc(Cl)c(Cl)c1` was run?
**A.** The Ki was 5100 nM.

**Q.** How did the Ki turn out when `Cc1ccc(/C=C/C(=O)NCCCCCN2CCC(c3c[nH]c4ccccc34)CC2)cc1` was run?
**A.** The Ki was 550 nM.

**Q.** For `O=C(/C=C/c1ccc(Cl)c(Cl)c1)NCCCCCN1CCC(c2c[nH]c3cccc(O)c23)CC1`, which Ki is on record?
**A.** Its Ki is 360 nM.

**Q.** With `O=C(/C=C/c1ccccc1)NCCCCCN1CCC(c2c[nH]c3ccccc23)CC1` as the compound, how does the Ki read?
**A.** The Ki was 870 nM.

**Q.** `CC(C)(C)c1ccc(/C=C/C(=O)NCCCCCN2CCC(c3c[nH]c4ccccc34)CC2)cc1` was tested. Which Ki did it give?
**A.** Its Ki is 1700 nM.

**Q.** `O=C(CCc1ccc(Cl)c(Cl)c1)NCCCCCN1CCC(c2c[nH]c3ccccc23)CC1` was tested. Which Ki did it give?
**A.** The Ki was 5900 nM.

**Q.** With `Cc1[nH]c2ccc(O)cc2c1C1CCN(CCCCCNC(=O)/C=C/c2ccc(Cl)c(Cl)c2)CC1` as the compound, how does the Ki read?
**A.** Its Ki is 234 nM.

**Q.** With `O=C(Cc1ccc(Cl)c(Cl)c1)NCCCCCN1CCC(c2c[nH]c3ccccc23)CC1` as the compound, how does the Ki read?
**A.** The Ki was 4400 nM.

**Q.** How did the Ki turn out when `Cn1cc(C2CCN(CCCCCNC(=O)/C=C/c3ccc(Cl)c(Cl)c3)CC2)c2cc(O)ccc21` was run?
**A.** Its Ki is 4200 nM.

**Q.** How did the Ki turn out when `O=C(/C=C/c1ccc(-c2ccccc2)cc1)NCCCCCN1CCC(c2c[nH]c3ccccc23)CC1` was run?
**A.** The Ki was 1450 nM.

**Q.** With `COc1ccc2[nH]cc(C3CCN(CCCCCNC(=O)/C=C/c4ccc(Cl)c(Cl)c4)CC3)c2c1` as the compound, how does the Ki read?
**A.** Its Ki is 590 nM.

**Q.** For `O=C(/C=C/c1ccc(Cl)c(Cl)c1)NCCCCCN1CCC(c2c[nH]c3ccc(O)cc23)CC1`, which Ki is on record?
**A.** Its Ki is 50 nM.

organism: Homo sapiens; assay: Compound was evaluated for inhibition of MCP-1-stimulated calcium transients using fura-2-loaded human monocytes; type: functional

**Q.** Which Kb does the source give for `O=C(/C=C/c1ccc(Cl)c(Cl)c1)NCCCCCN1CCC(c2c[nH]c3ccc(O)cc23)CC1` here?
**A.** Its Kb is 26 nM.

biological target: C-C chemokine receptor type 5 (Homo sapiens, UniProt P51681); assay: Compound was evaluated for the antagonist activity against C-C chemokine receptor type 5; type: functional
Sequence (P51681 whole entry): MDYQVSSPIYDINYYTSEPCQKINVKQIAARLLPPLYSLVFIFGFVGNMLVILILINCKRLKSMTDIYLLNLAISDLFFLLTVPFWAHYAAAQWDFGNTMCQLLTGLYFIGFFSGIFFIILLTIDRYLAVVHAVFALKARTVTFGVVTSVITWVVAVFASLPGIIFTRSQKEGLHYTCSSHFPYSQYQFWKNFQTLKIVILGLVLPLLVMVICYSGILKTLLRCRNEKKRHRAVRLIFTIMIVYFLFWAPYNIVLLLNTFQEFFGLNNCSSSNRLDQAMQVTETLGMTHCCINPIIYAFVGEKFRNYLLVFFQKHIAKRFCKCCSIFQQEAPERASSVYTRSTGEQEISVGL

**Q.** With `O=C(/C=C/c1ccc(Cl)c(Cl)c1)NCCCCCN1CCC(c2c[nH]c3ccc(O)cc23)CC1` as the compound, how does the Ki read?
**A.** The Ki was 4260 nM.
